One experiment addresses T1, Recombinant human renin (Homo sapiens, UniProt P00797).
T1 construct: with trypsin, and isolate the active form (residues 67-406); made in house; host or cells: FreeStyle 293-F cells (transient expression of pcDNA3.1(+)/hREN)
T1 sequence (P00797 67-406): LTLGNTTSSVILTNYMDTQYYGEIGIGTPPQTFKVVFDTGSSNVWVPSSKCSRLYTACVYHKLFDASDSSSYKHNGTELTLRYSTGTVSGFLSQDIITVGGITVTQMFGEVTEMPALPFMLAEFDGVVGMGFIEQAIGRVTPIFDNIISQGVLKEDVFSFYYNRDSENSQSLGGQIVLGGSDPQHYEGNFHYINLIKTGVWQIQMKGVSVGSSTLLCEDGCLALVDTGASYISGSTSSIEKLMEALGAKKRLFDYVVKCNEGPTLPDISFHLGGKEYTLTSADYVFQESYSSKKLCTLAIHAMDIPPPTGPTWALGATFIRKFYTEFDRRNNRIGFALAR
The experiment in a line: in vitro enzymatic activity of renin inhibitors (fluorescence). It is filed as biochemical. The following applies: fluorogenic peptide substrate. The text has this: Test compounds in varying concentrations may be reacted with recombinant human renin in the presence of substrate, e.g., QXL520-γ-Abu-Ile-His-Pro-Phe-His-Leu-Val-Ile-His-Thr-Lys (HiLyteFluo488)-Arg-OH (Anaspec, San Jose, Calif.). The reaction can be followed kinetically using fluorescence (excitation λ=485 nm; emission λ=538 nm). Inhibition constants (IC50) may be calculated by non-linear curve fitting of the compound concentrations and fluorescence intensities to the standard IC50 equation.
Solutions of test compounds in varying concentrations (≦2 mM final concentration) are prepared in dimethyl sulfoxide (DMSO) and then diluted into assay buffer comprising 50 mM Hepes, 1 mM EDTA, 1 mM DTT, 0.1 mg/ml BSA, 0.01% Brij35, pH 7.4. Alternatively, the assay can be performed with a high BSA concentration, wherein the buffer contains an additional 2% BSA.
Recombinant human renin (3 nM final concentration) is added to the dilutions and pre-incubated with the compounds for 10 minutes at 37° C. As described in Examples A-C above, human renin can be obtained by expressing preprorenin (residue 1-406) in mammalian cells, treating the prorenin (residues 24-406) contained in the culture supernatant with trypsin, and isolate the active form (residues 67-406). After pre-incubation, the reaction is initiated with 1 μM of substrate QXL520-γ-Abu-Ile-His-Pro-Phe-His-Leu-Val-Ile-His-Thr-Lys (HiLyteFluo488)-Arg-OH (Anaspec, San Jose, Calif.). The final DMSO in the assay is 5%. The total volume of the reaction mixture is 20 μL, which can be placed on Greiner 384-well small volume plates.
Renin activity may be determined via fluorescence (excitation λ=485 nm; emission λ=538 nm), e.g., on a Molecular Devices SPECTROmax GEMINI XPS. The fluorescence intensity is determined upon the addition of substrate and determined again after incubation at 37° C. for one hour. The fluorescence intensity of a blank (no inhibition) using vehicle alone is also determined. Renin activity is linearly proportional to the change in fluorescence observed (final—initial).
The percent inhibition of renin at a given compound concentration is defined as: 100%×[1−(Fcompound/Fblank)] where Fcompound is the observed fluorescence at a given concentration of test compound and Fblank is the observed fluorescence in the presence of vehicle alone.
The pIC50 value (negative log of the molar concentration of the compound that produces 50% inhibition) of a test compound is calculated by non-linear least squares curve fitting of the equation: Percent Inhibition=100%/(1+(10−pIC50/10 log [I])) to percent inhibition versus compound concentration. The 50% inhibitory concentration (IC50) of a test compound is calculated by raising 10 to the negative pIC50 (10-pIC50).

For another experiment, the target named is Human DPP-IV (Homo sapiens, UniProt P27487). The experiment is described as follows: in vitro enzymatic activity of inhibitors against DPP-IV. The following applies: AP-AFC substrate. It is filed as biochemical. Here is the method:
Solutions of test compounds in varying concentrations ([…]) were prepared in dimethyl sulfoxide (DMSO) and then diluted into assay buffer comprising: 20 mM Tris, pH 7.4; 20 mM KCl; and 0.1 mg/mL BSA. Human DPP-IV (0.1 nM final concentration) was added to the dilutions and pre-incubated for 10 minutes at ambient temperature before the reaction was initiated with A-P-7-amido-4-trifluoromethylcoumarin (AP-AFC; 10 μM final concentration). The total volume of the reaction mixture was 10-100 μL depending on assay formats used (384 or 96 well plates). The reaction was followed kinetically (excitation λ=400 nm; emission λ=505 nm) for 5-10 minutes or an end-point was measured after 10 minutes. Inhibition constants (IC50) were calculated from the enzyme progress curves using standard mathematical models.

SMILES strings stand for the structures.

Sequence of Human DPP-IV (P27487 whole entry): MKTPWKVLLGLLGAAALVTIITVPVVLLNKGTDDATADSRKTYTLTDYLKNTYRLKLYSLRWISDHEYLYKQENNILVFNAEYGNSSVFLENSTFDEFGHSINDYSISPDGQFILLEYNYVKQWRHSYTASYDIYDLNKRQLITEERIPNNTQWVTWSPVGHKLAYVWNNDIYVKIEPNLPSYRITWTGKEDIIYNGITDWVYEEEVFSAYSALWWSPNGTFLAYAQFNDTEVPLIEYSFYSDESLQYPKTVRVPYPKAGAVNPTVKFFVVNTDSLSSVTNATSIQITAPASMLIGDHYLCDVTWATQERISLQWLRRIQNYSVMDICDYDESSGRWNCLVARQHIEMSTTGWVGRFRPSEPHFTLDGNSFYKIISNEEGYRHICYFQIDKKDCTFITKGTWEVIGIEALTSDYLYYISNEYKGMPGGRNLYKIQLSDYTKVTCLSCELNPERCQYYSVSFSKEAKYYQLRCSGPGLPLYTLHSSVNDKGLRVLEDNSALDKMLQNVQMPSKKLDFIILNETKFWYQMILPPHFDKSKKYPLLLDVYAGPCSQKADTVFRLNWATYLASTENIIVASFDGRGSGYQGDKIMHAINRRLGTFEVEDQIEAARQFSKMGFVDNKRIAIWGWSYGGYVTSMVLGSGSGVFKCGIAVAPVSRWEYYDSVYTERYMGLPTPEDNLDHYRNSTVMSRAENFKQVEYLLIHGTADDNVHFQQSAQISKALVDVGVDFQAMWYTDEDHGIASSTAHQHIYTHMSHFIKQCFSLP

For `COc1ccc(F)cc1-c1c(CN)c(NCCc2ccccc2)nc2c1c(=O)n(C)c(=O)n2C` [Compound 93, 6-(Aminomethyl)-5-(5-fluoro-2-methoxyphenyl)-1,3-dimethyl-7-(phenethylamino)pyrido[2,3-d]pyrimidine-2,4(1H,3H)-dione], the IC50 at Recombinant human renin was 10 to 100 µM; against Human DPP-IV, below 1 µM.

Consider `CC(=O)Nc1ccc(Sc2nc3c(c(-c4cc(F)ccc4Br)c2CN)c(=O)n(C)c(=O)n3C)cc1` [Compound 68, N-(4-(6-(aminomethyl)-5-(2-bromo-5-fluorophenyl)-1,3-dimethyl-2,4-dioxo-1,2,3,4-tetrahydropyrido[2,3-d]pyrimidin-7-ylthio)phenyl)acetamide], for which the half-maximal inhibitory concentration (IC50) was 10 to 100 µM on Recombinant human renin and below 1 µM on Human DPP-IV.

As for `COc1ccc(F)cc1-c1c(CN)c(NCc2cccc(OCC(C)C)c2)nc2c1c(=O)n(C)c(=O)n2C` [Compound 83, 6-(aminomethyl)-5-(5-fluoro-2-methoxyphenyl)-7-(3-isobutoxybenzylamino)-1,3-dimethylpyrido[2,3-d]pyrimidine-2,4(1H,3H)-dione], the IC50 on Recombinant human renin is 1 to 10 µM; against Human DPP-IV, below 1 µM.

Turning to `Cn1c(=O)c2c(-c3cccc(OCc4cnc(Cl)s4)c3)c(CN)c(NCc3ccc4ccccc4c3)nc2n(C)c1=O` [Compound 89, 6-(Aminomethyl)-5-(3-((2-chlorothiazol-5-yl)methoxy)phenyl)-1,3-dimethyl-7-(naphthalen-2-ylmethylamino)pyrido[2,3-d]pyrimidine-2,4(1H,3H)-dione], the IC50 at Recombinant human renin fell in the range of 1 to 10 µM; on Human DPP-IV it was 10 to 100 µM.

As to `Cn1c(=O)c2c(-c3ccc(CN)cc3)c(CN)c(N)nc2n(C)c1=O` [Compound 66, 7-Amino-6-(aminomethyl)-5-(4-(aminomethyl)phenyl)-1,3-dimethylpyrido[2,3-d]pyrimidine-2,4(1H,3H)-dione], the half-inhibitory concentration (IC50) at Recombinant human renin was 10 to 100 µM; on Human DPP-IV, above 100 µM.

With `COc1ccc(F)cc1-c1c(CN)c(NCc2ccc(-n3cccn3)cc2)nc2c1c(=O)n(C)c(=O)n2C` [Compound 72, 7-(4-(1H-pyrazol-1-yl)benzylamino)-6-(aminomethyl)-5-(5-fluoro-2-methoxyphenyl)-1,3-dimethylpyrido[2,3-d]pyrimidine-2,4(1H,3H)-dione], the half-inhibitory concentration (IC50) is 1 to 10 µM on Recombinant human renin and below 1 µM against Human DPP-IV.

For the molecule `CCOc1ccc(OCC)c(-c2c(CN)c(NCc3ccc4ccccc4c3)nc3c2c(=O)n(C)c(=O)n3C)c1` [Compound 64, 6-(aminomethyl)-5-(2,5-diethoxyphenyl)-1,3-dimethyl-7-(naphthalen-2-ylmethylamino)pyrido[2,3-d]pyrimidine-2,4(1H,3H)-dione], the figures for the IC50 on Recombinant human renin and on Human DPP-IV were 1 to 10 µM and above 100 µM, respectively.

In the case of `CC(C)COc1cccc(-c2c(CN)c(N)nc3c2c(=O)n(C)c(=O)n3C)c1` [Compound 76, 7-amino-6-(aminomethyl)-5-(3-isobutoxyphenyl)-1,3-dimethylpyrido[2,3-d]pyrimidine-2,4(1H,3H)-dione], the IC50 was above 100 µM at Recombinant human renin and 10 to 100 µM on Human DPP-IV.

`COc1cccc(CNc2nc3c(c(-c4cc(F)ccc4OC)c2CN)c(=O)n(C)c(=O)n3C)c1` [Compound 71, 6-(aminomethyl)-5-(5-fluoro-2-methoxyphenyl)-7-(3-methoxybenzylamino)-1,3-dimethylpyrido[2,3-d]pyrimidine-2,4(1H,3H)-dione]: the IC50 on Recombinant human renin was in the range of 1 to 10 µM.

As to `CN(C)C(=O)c1cccc(-c2c(CN)c(NCc3ccc4ccccc4c3)nc3c2c(=O)n(C)c(=O)n3C)c1` [Compound 58, 3-(6-(Aminomethyl)-1,3-dimethyl-7-(naphthalen-2-ylmethylamino)-2,4-dioxo-1,2,3,4-tetrahydropyrido[2,3-d]pyrimidin-5-yl)-N,N-dimethylbenzamide], on Recombinant human renin, the IC50 was 1 to 10 µM.

For `CCC(CC)Nc1nc2c(c(-c3cc(F)ccc3OC)c1CN)c(=O)n(C)c(=O)n2C` [Compound 73, 6-(aminomethyl)-5-(5-fluoro-2-methoxyphenyl)-1,3-dimethyl-7-(pentan-3-ylamino)pyrido[2,3-d]pyrimidine-2,4(1H,3H)-dione], the IC50 on Recombinant human renin is 1 to 10 µM.

For orientation: IC50 means the concentration needed to halve the response being measured.

For the origin of these results see US8133898B2, “Renin inhibitors” (Takeda Pharmaceutical Company Limited, priority 2008, dated 2012).
